From patent publication US20140274713A1, “IONIC LIQUIDS AND USES THEREOF” (OMS Investments, Inc., priority 2013, published 2014)

Experiment: Dissolution in Dowanol DPM under high shear
Assay type: physicochemical
Settings: Dowanol DPM (dipropylene glycol methyl ether)

Structure (SMILES): COC(=O)c1ccccc1S(=O)(=O)NC(=O)Nc1nc(C)nc(OC)n1 [MSM, methsulfuron methyl]
- Dissolution in Dowanol DPM: did not dissolve
